Results as given in US9617253B2, “Molecules having pesticidal utility, and intermediates, compositions, and processes, related thereto” (Dow AgroSciences LLC, priority 2015, dated 2017).

Tests used:
[1] = test system: Cabbage Looper (Trichoplusia ni, TRIPNI); test: Bioassay on Cabbage Looper (CL), 128-well diet tray assay; type: in vivo; details: 168 h, second instar CL larvae, 50 μg/cm^2 on artificial diet, 25° C., five to seven days, average of eight wells, read-out: CL % Control (or Mortality) rating
Method: (§1) Certain molecules disclosed in this document were tested against BAW and CL using procedures described in the following examples. In the reporting of the results, the “BAW & CL Rating Table” was used (See Table Section).
Bioassays on CL were conducted using a 128-well diet tray assay. One to five second instar CL larvae were placed in each well (3 mL) of the diet tray that had been previously filled with 1 mL of artificial diet to which 50 μg/cm^2 of the test molecule (dissolved in 50 μL of 90:10 acetone-water mixture) had been applied (to each of eight wells) and then allowed to dry. Trays were covered with a clear self-adhesive cover, vented to allow gas exchange, and held at 25° C., 14:10 light-dark for five to seven days. Percent mortality was recorded for the larvae in each well; activity in the eight wells was then averaged. The results are indicated in the table entitled “Table ABC: Biological Results” (See Table Section).

[2] = test system: Beet Armyworm (Spodoptera exigua, LAPHEG); test: Bioassay on Beet Armyworm (BAW), 128-well diet tray assay; type: in vivo; details: 168 h, second instar BAW larvae, 50 μg/cm^2 on artificial diet, 25° C., five to seven days, average of eight wells, read-out: BAW % Control (or Mortality) rating
Method: as §1
Bioassays on BAW were conducted using a 128-well diet tray assay. One to five second instar BAW larvae were placed in each well (3 mL) of the diet tray that had been previously filled with 1 mL of artificial diet to which 50 μg/cm^2 of the test molecule (dissolved in 50 μL of 90:10 acetone-water mixture) had been applied (to each of eight wells) and then allowed to dry. Trays were covered with a clear self-adhesive cover, vented to allow gas exchange, and held at 25° C., 14:10 light-dark for five to seven days. Percent mortality was recorded for the larvae in each well; activity in the eight wells was then averaged. The results are indicated in the table entitled “Table ABC: Biological Results” (See Table Section).

CCCc1ccc(C)cc1N1C(=O)CS/C1=N\C(=O)Nc1cc(F)c(OCc2ncn(-c3ccc(OC(F)(F)F)cc3)n2)c(F)c1 [F42, (Z)-1-(3,5-Difluoro-4-((1-(4-(trifluoromethoxy)phenyl)-1H-1,2,4-triazol-3-yl)methoxy)phenyl)-3-(3-(5-methyl-2-propylphenyl)-4-oxothiazolidin-2-ylidene)urea]
mortality at 50 µg/cm2 [1]: 50 to 100% | mortality at 50 µg/cm2 [2]: 50 to 100%

Cc1ccc(C(C)C)c(N2C(=O)CS/C2=N\C(=O)Nc2ccc(OCc3ncn(-c4ccc(OC(F)(F)F)cc4)n3)cc2F)c1 [F16, (Z)-1-(2-Fluoro-4-((1-(4-(trifluoromethoxy)phenyl)-1H-1,2,4-triazol-3-yl)methoxy)phenyl)-3-(3-(2-isopropyl-5-methylphenyl)-4-oxothiazolidin-2-ylidene)urea]
mortality at 50 µg/cm2 [1]: 50 to 100% | mortality at 50 µg/cm2 [2]: 50 to 100%

CCCc1ccc(C)cc1N1C(=O)CS/C1=N\C(=O)Nc1ccc(OCc2ncn(-c3ccc(OC(F)(F)F)cc3)n2)cc1C [F26, (Z)-1-(3-(5-Methyl-2-propylphenyl)-4-oxothiazolidin-2-ylidene)-3-(2-methyl-4-((1-(4-(trifluoromethoxy)phenyl)-1H-1,2,4-triazol-3-yl)methoxy)phenyl)urea]
mortality at 50 µg/cm2 [1]: 50 to 100% | mortality at 50 µg/cm2 [2]: 50 to 100%

CCCc1ccc(C)cc1N1C(=O)CS/C1=N\C(=O)Nc1ccc(OCc2ncn(-c3ccc(OC(F)(F)F)cc3)n2)cc1Cl [F30, (Z)-1-(2-Chloro-4-((1-(4-(trifluoromethoxy)phenyl)-1H-1,2,4-triazol-3-yl)methoxy)phenyl)-3-(3-(5-methyl-2-propylphenyl)-4-oxothiazolidin-2-ylidene)urea]
mortality at 50 µg/cm2 [1]: 50 to 100% | mortality at 50 µg/cm2 [2]: 50 to 100%

CCCc1ccc(C)cc1N1C(=O)CS/C1=N\C(=O)Nc1ccc(OCc2ncn(-c3ccc(OC(F)(F)F)cc3)n2)cc1OC [F33, (Z)-1-(2-Methoxy-4-((1-(4-(trifluoromethoxy)phenyl)-1H-1,2,4-triazol-3-yl)methoxy)phenyl)-3-(3-(5-methyl-2-propylphenyl)-4-oxothiazolidin-2-ylidene)urea]
mortality at 50 µg/cm2 [1]: 50 to 100% | mortality at 50 µg/cm2 [2]: 50 to 100%

CCCc1ccc(C)cc1N1C(=O)CS/C1=N\C(=O)Nc1ccc(OCc2ncn(-c3ccc(OC(F)(F)F)cc3)n2)c(Cl)c1 [F39, (Z)-1-(3-Chloro-4-((1-(4-(trifluoromethoxy)phenyl)-1H-1,2,4-triazol-3-yl)methoxy)phenyl)-3-(3-(5-methyl-2-propylphenyl)-4-oxothiazolidin-2-ylidene)urea]
mortality at 50 µg/cm2 [1]: 50 to 100% | mortality at 50 µg/cm2 [2]: 50 to 100%

COCc1ccc(C)cc1N1C(=O)CS/C1=N\C(=O)Nc1ccc(COc2ncn(-c3ccc(OC(F)(F)F)cc3)n2)c(OC)c1 [F11, (Z)-1-(3-Methoxy-4-(((1-(4-(trifluoromethoxy)phenyl)-1H-1,2,4-triazol-3-yl)oxy)methyl)phenyl)-3-(3-(2-(methoxymethyl)-5-methylphenyl)-4-oxothiazolidin-2-ylidene)urea]
mortality at 50 µg/cm2 [1]: 0% | mortality at 50 µg/cm2 [2]: 0%

COc1cc(NC(=O)/N=C2\SCC(=O)N2c2cc(C)ccc2C(C)C)ccc1COc1ncn(-c2ccc(OC(F)(F)F)cc2)n1 [F4, (Z)-1-(3-(2-Isopropyl-5-methylphenyl)-4-oxothiazolidin-2-ylidene)-3-(3-methoxy-4-(((1-(4-(trifluoromethoxy)phenyl)-1H-1,2,4-triazol-3-yl)oxy)methyl)phenyl)urea]
mortality at 50 µg/cm2 [1]: 50 to 100% | mortality at 50 µg/cm2 [2]: 50 to 100%

COCc1ccc(C)cc1N1C(=O)CS/C1=N\C(=O)Nc1c(F)cc(OCc2ncn(-c3ccc(OC(F)(F)F)cc3)n2)cc1F [F19, (Z)-1-(2,6-Difluoro-4-((1-(4-(trifluoromethoxy)phenyl)-1H-1,2,4-triazol-3-yl)methoxy)phenyl)-3-(3-(2-(methoxymethyl)-5-methylphenyl)-4-oxothiazolidin-2-ylidene)urea]
mortality at 50 µg/cm2 [1]: 50 to 100% | mortality at 50 µg/cm2 [2]: 50 to 100%

Cc1ccc(C(C)C)c(N2C(=O)CS/C2=N\C(=O)Nc2ccc(OCc3ncn(-c4ccc(OC(F)(F)F)cc4)n3)c(Cl)c2)c1 [F38, (Z)-1-(3-Chloro-4-((1-(4-(trifluoromethoxy)phenyl)-1H-1,2,4-triazol-3-yl)methoxy)phenyl)-3-(3-(2-isopropyl-5-methylphenyl)-4-oxothiazolidin-2-ylidene)urea]
mortality at 50 µg/cm2 [1]: 50 to 100% | mortality at 50 µg/cm2 [2]: 50 to 100%

Cc1ccc(C(C)C)c(N2C(=O)CS/C2=N\C(=O)Nc2ccc(OCc3ncn(-c4ccc(OC(F)(F)F)cc4)n3)c(F)c2)c1 [F35, (Z)-1-(3-Fluoro-4-((1-(4-(trifluoromethoxy)phenyl)-1H-1,2,4-triazol-3-yl)methoxy)phenyl)-3-(3-(2-isopropyl-5-methylphenyl)-4-oxothiazolidin-2-ylidene)urea]
mortality at 50 µg/cm2 [1]: 50 to 100% | mortality at 50 µg/cm2 [2]: 50 to 100%

Cc1ccc(C(C)C)c(N2C(=O)CS/C2=N\C(=O)Nc2ccc(COc3ncn(-c4ccc(OC(F)(F)F)cc4)n3)c(F)c2)c1 [F3, (Z)-1-(3-Fluoro-4-(((1-(4-(trifluoromethoxy)phenyl)-1H-1,2,4-triazol-3-yl)oxy)methyl)phenyl)-3-(3-(2-isopropyl-5-methylphenyl)-4-oxothiazolidin-2-ylidene)urea]
mortality at 50 µg/cm2 [1]: 50 to 100% | mortality at 50 µg/cm2 [2]: 50 to 100%

Cc1ccc(C(C)C)c(N2C(=O)CS/C2=N\C(=O)Nc2ccc(COc3ncn(-c4ccc(OC(F)(F)F)cc4)n3)cc2F)c1 [F2, (Z)-1-(2-Fluoro-4-(((1-(4-(trifluoromethoxy)phenyl)-1H-1,2,4-triazol-3-yl)oxy)methyl)phenyl)-3-(3-(2-isopropyl-5-methylphenyl)-4-oxothiazolidin-2-ylidene)urea]
mortality at 50 µg/cm2 [1]: 50 to 100% | mortality at 50 µg/cm2 [2]: 50 to 100%

Cc1ccc(C(C)C)c(N2C(=O)CS/C2=N\C(=O)Nc2ccc(OCc3ncn(-c4ccc(OC(F)(F)F)cc4)n3)nc2)c1 [F44, (Z)-1-(3-(2-Isopropyl-5-methylphenyl)-4-oxothiazolidin-2-ylidene)-3-(6-((1-(4-(trifluoromethoxy)phenyl)-1H-1,2,4-triazol-3-yl)methoxy)pyridin-3-yl)urea]
mortality at 50 µg/cm2 [1]: 50 to 100% | mortality at 50 µg/cm2 [2]: 50 to 100%

Cc1ccc(C(C)C)c(N2C(=O)CS/C2=N\C(=O)Nc2ccc(OCc3ncn(-c4ccc(OC(F)(F)F)cc4)n3)cc2)c1 [F15, (Z)-1-(3-(2-Isopropyl-5-methylphenyl)-4-oxothiazolidin-2-ylidene)-3-(4-((1-(4-(trifluoromethoxy)phenyl)-1H-1,2,4-triazol-3-yl)methoxy)phenyl)urea]
mortality at 50 µg/cm2 [1]: 50 to 100% | mortality at 50 µg/cm2 [2]: 50 to 100%

COCc1ccc(C)cc1N1C(=O)CS/C1=N\C(=O)Nc1ccc(OCc2ncn(-c3ccc(OC(F)(F)F)cc3)n2)cc1OC [F34, (Z)-1-(2-Methoxy-4-((1-(4-(trifluoromethoxy)phenyl)-1H-1,2,4-triazol-3-yl)methoxy)phenyl)-3-(3-(2-(methoxymethyl)-5-methylphenyl)-4-oxothiazolidin-2-ylidene)urea]
mortality at 50 µg/cm2 [1]: 50 to 100% | mortality at 50 µg/cm2 [2]: 50 to 100%

COCc1ccc(C)cc1N1C(=O)CS/C1=N\C(=O)Nc1ccc(OCc2ncn(-c3ccc(OC(F)(F)F)cc3)n2)nc1 [F46, (Z)-1-(3-(2-(Methoxymethyl)-5-methylphenyl)-4-oxothiazolidin-2-ylidene)-3-(6-((1-(4-(trifluoromethoxy)phenyl)-1H-1,2,4-triazol-3-yl)methoxy)pyridin-3-yl)urea]
mortality at 50 µg/cm2 [1]: 0% | mortality at 50 µg/cm2 [2]: 0 to 50%

COCc1ccc(C)cc1N1C(=O)CS/C1=N\C(=O)Nc1ccc(OCc2ncn(-c3ccc(OC(F)(F)F)cc3)n2)c(F)c1 [F37, (Z)-1-(3-Fluoro-4-((1-(4-(trifluoromethoxy)phenyl)-1H-1,2,4-triazol-3-yl)methoxy)phenyl)-3-(3-(2-(methoxymethyl)-5-methylphenyl)-4-oxothiazolidin-2-ylidene)urea]
mortality at 50 µg/cm2 [1]: 50 to 100% | mortality at 50 µg/cm2 [2]: 50 to 100%

COCc1ccc(C)cc1N1C(=O)CS/C1=N\C(=O)Nc1ccc(OCc2ncn(-c3ccc(OC(F)(F)F)cc3)n2)c(Cl)c1 [F40, (Z)-1-(3-Chloro-4-((1-(4-(trifluoromethoxy)phenyl)-1H-1,2,4-triazol-3-yl)methoxy)phenyl)-3-(3-(2-(methoxymethyl)-5-methylphenyl)-4-oxothiazolidin-2-ylidene)urea]
mortality at 50 µg/cm2 [1]: 50 to 100% | mortality at 50 µg/cm2 [2]: 50 to 100%

CCCc1ccc(C)cc1N1C(=O)CS/C1=N\C(=O)Nc1ccc(COc2ncn(-c3ccc(OC(F)(F)F)cc3)n2)cc1F [F6, (Z)-1-(2-Fluoro-4-(((1-(4-(trifluoromethoxy)phenyl)-1H-1,2,4-triazol-3-yl)oxy)methyl)phenyl)-3-(3-(5-methyl-2-propylphenyl)-4-oxothiazolidin-2-ylidene)urea]
mortality at 50 µg/cm2 [1]: 50 to 100% | mortality at 50 µg/cm2 [2]: 50 to 100%
